{
  "source": "patent US5264429A",
  "about": "“2-spirocyclopropyl cephalosporin sulfone derivatives” (SynPhar Laboratories, Inc., priority 1991, dated 1993)",
  "key": {"[1]": {"biological_target": "T1, human leukocyte elastase (HLE) (Homo sapiens, UniProt P08246)", "T1 construct": "from tissue; host or cells: human white blood cells", "T1 sequence (P08246 30-247 limits assumed)": "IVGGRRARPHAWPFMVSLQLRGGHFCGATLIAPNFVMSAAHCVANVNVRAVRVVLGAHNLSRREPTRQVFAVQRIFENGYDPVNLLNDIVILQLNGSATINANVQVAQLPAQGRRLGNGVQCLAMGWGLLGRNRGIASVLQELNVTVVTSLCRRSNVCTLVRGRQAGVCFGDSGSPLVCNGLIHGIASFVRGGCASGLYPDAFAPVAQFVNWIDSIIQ", "experiment": "Enzyme Assay for Inhibition of HLE", "assay_type": "biochemical", "conditions": "HLE 10 nM, pH 7.6, 10 minute preincubation, 30° C.", "method": "Enzyme Assay for Inhibition of HLE:\nEnzyme: Purified elastase from human white blood cells.\nSubstrate: MeO-succinyl-L-alanyl-L-alanyl-L-prolyl-L-valine-p-nitro-anilide(NA).\nReaction Mixture: 10 mM phosphate buffer (pH 7.6), 500 mM NaCl, 10% dimethylsulfoxide (DMSO), 0.35 mM substrate.\nThe enzyme activity was determined by monitoring the increase in absorbance at 410 nm caused by the hydrolysis of chromogenic substrates. Inhibition of enzyme by the compounds described were determined after a 10 minute preincubation with the enzyme in reaction mixture minus substrate. Reaction was initiated by the addition of substrate. The concentration of human leukocyte elastase used for assay was at 10 nM.\nHLE, CTG, PPE and CTD were tested at 30° C. and the others were […]"}, "[2]": {"biological_target": "T2, thrombin (Homo sapiens, UniProt P00734)", "T2 construct": "from tissue; host or cells: human plasma", "experiment": "Inhibition of thrombin (THR)", "assay_type": "biochemical", "conditions": "pH 8.6, 10 minute preincubation, 22° C.", "method": "(§1) HLE, CTG, PPE and CTD were tested at 30° C. and the others were\n(§2) TRY, trypsin; THR, thrombin; PTH, plasmin; CTC, cathepsin C; ATM,\nEnzyme: Purified thrombin from human plasma\nSubstrate: Tosyl-glycyl-L-prolyl-L-arginine-p-NA acetate\nReaction mixture: 50 mM Tricine-NaOH buffer (pH 8.6), 500 mM NaCl, 0.1% Polyethyleneglycol 8000, 10% DMSO, 0.5 mM Substrate.\n(§3) Except for Cathepsin D, the enzyme activities were determined by monitoring the increase in absorbance at 410 nm caused by the hydrolysis of chromogenic substrates. The activity of Cathepsin D was determined by monitoring the absorbance of 5% trichloroacetic acid-soluble material at 280 nm.\n(§4) Inhibition of enzymes by the compounds described were determined after a 10 minute preincubation with enzymes in reaction mixtures minus substrate. Reactions were initiated by the addition of substrates. The concentration used for assays were porcine pancreatic elastase at 240 nM and human Cathepsin G at 50 nM. Cathepsin D was used at the concentration that produced approximately 0.15 O.D. increase per 20 min at 280 nm under the standard conditions. All other proteases were assayed at the concentrations that produced approximately 0.1 O.D. change per minute at 410 nm under the standard conditions."}, "[3]": {"biological_target": "T3, cathepsin C (Bos taurus, UniProt Q3ZCJ8)", "T3 construct": "from tissue; host or cells: bovine spleen", "T3 sequence (Q3ZCJ8 231-394 limits assumed)": "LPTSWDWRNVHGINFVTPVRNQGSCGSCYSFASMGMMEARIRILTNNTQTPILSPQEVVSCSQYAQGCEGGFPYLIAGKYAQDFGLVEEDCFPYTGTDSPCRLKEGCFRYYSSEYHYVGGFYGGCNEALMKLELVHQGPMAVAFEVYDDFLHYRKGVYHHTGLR", "T3 sequence (Q3ZCJ8 395-463 limits assumed)": "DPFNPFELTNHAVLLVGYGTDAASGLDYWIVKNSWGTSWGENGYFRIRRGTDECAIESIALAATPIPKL", "T3 sequence (Q3ZCJ8 25-134 limits assumed)": "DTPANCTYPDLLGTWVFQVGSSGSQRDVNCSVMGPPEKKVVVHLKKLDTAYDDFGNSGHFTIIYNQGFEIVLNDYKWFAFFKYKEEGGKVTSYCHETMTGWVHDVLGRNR", "experiment": "Inhibition of cathepsin C (CTC)", "assay_type": "biochemical, bovine", "method": "as §1, §2\nEnzyme: Purified cathepsin C from bovine spleen\nSubstrate: Glycyl-L-phenylalanine-pNA\nReaction mixture: 50 mM Citrate buffer (pH 5.4), 5 mM B-Mercaptoethanol, 150 mM NaCl, 10% DMSO, 20 mM Substrate.\nas §3, §4"}, "[4]": {"biological_target": "T4, aminopeptidase M (Sus scrofa, UniProt P15145)", "T4 construct": "from tissue; host or cells: porcine kidney", "T4 sequence (P15145 1-963)": "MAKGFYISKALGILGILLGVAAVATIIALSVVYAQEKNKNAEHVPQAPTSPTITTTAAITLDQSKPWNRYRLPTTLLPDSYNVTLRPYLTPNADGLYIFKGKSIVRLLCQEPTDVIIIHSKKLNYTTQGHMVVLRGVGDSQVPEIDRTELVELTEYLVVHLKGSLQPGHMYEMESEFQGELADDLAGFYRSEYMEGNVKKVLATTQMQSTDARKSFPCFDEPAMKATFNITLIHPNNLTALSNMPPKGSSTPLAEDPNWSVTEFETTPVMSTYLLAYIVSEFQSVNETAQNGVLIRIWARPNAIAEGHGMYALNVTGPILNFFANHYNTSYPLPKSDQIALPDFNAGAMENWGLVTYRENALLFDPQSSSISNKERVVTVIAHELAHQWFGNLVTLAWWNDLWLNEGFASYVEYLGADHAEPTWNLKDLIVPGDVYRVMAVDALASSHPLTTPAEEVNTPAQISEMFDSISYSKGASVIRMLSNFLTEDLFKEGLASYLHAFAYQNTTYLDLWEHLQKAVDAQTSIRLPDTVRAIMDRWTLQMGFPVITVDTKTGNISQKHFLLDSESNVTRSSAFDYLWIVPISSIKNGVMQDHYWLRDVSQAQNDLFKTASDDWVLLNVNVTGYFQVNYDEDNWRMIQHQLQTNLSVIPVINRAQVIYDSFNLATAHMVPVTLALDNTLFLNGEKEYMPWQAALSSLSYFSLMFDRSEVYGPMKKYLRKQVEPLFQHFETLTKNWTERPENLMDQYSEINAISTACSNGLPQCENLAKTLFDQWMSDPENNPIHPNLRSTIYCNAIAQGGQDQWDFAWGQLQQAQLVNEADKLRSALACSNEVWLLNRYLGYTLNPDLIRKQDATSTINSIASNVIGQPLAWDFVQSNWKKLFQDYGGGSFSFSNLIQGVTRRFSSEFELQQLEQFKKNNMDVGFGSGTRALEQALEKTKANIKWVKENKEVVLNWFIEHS", "experiment": "Inhibition of aminopeptidase M (ATM)", "assay_type": "biochemical, porcine", "method": "as §1, §2\naminopeptidase M; CTG, cathespin G; CTD, cathespin D; PPE, porcine\nEnzyme: Purified aminopeptidase M from porcine kidney\nReaction Mixture: 50 mM Tricine buffer (pH 7.5), 500 mM NaCl, 10% DMSO, 2.0 mM Substrate.\nas §3, §4"}, "[5]": {"biological_target": "T5, cathepsin G (Homo sapiens, UniProt P08311)", "T5 construct": "from tissue; host or cells: human white blood cells", "T5 sequence (P08311 21-244 limits assumed)": "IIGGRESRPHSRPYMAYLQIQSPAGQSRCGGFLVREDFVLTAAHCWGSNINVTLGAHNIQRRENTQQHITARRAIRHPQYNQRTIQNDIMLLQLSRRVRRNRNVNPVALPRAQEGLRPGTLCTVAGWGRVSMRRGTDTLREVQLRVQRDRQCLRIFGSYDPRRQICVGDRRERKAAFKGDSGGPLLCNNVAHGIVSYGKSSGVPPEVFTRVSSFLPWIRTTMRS", "experiment": "Inhibition of cathepsin G (CTG)", "assay_type": "biochemical", "conditions": "cathepsin G 50 nM, pH 7.5, 10 minute preincubation, 30° C.; read-out: IC50 CTG (converted)", "protocol": "Enzyme: Purified Cathepsin G from human white blood cells\nSubstrate: N-succinyl-L-alanyl-L-alanyl-L-phenylalanyl-L-phenylalanine -p-NA.\nReaction mixture: 10 mM Phosphate buffer (pH 7.5), 500 mM NaCl, 10% DMSO, 2.0 mM Substrate."}, "[6]": {"biological_target": "T6, plasmin (Homo sapiens, UniProt P00747)", "T6 construct": "from tissue; host or cells: human plasma", "T6 sequence (P00747 581-810 limits assumed)": "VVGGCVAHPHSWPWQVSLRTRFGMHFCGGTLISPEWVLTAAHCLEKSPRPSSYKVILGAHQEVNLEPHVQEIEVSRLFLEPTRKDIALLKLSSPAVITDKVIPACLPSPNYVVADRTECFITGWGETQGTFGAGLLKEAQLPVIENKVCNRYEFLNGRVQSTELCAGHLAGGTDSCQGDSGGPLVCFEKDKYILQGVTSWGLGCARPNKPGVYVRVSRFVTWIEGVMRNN", "T6 sequence (P00747 97-580 partner limits assumed)": "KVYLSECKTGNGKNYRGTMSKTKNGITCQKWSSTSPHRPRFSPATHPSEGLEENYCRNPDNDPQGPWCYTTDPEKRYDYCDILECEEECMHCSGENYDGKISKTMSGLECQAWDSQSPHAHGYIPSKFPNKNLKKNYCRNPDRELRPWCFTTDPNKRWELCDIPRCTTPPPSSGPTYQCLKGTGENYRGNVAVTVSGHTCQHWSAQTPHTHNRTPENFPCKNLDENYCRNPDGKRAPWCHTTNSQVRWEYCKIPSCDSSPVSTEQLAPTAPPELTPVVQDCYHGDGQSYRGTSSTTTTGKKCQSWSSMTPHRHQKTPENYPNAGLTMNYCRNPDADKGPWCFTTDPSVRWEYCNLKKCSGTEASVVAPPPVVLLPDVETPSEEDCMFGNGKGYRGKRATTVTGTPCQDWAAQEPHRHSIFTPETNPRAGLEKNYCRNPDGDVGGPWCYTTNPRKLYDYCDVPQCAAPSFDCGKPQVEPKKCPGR", "experiment": "Inhibition of plasmin (PTH)", "assay_type": "biochemical", "conditions": "pH 8.9, 10 minute preincubation, 22° C.", "method": "as §1, §2\nEnzyme: Purified plasmin from human plasma Substrate: Tosyl-glyclyl-L-prolyl-L-lysine-pNA acetate\nReaction mixture: 50 mM Tris-HCl buffer (pH 8.9), 500 mM NaCl, 5% DMSO, 0.5 mM Substrate.\nas §3, §4"}},
  "data": [
    {"compound": "CO[C@H]1C(=O)N2C(C(=O)OCC(Cl)(Cl)Cl)=C(C)C3(CC3(c3ccccc3)c3ccccc3)S(=O)(=O)[C@H]12", "note": "(stereo partly drawn) [Example 8, 2,2,2-Trichloroethyl-7α-methoxy-2-spiro(2',2'-diphenyl) cyclopropyl-3-methyl-3-cephem-4-carboxylate-1,1-dioxide]", "values": [
      {"measurement": "IC50", "setting": "[1]", "value": 4.38, "unit": "nM"},
      {"measurement": "IC50", "setting": "[2]", "value": "> 9980", "unit": "nM"},
      {"measurement": "IC50", "setting": "[3]", "value": "> 9980", "unit": "nM"},
      {"measurement": "IC50", "setting": "[4]", "value": "> 9980", "unit": "nM"},
      {"measurement": "IC50", "setting": "[5]", "value": 403, "unit": "nM"},
      {"measurement": "IC50", "setting": "[6]", "value": 1300, "unit": "nM"}
    ]}
  ]
}
